# Patent US20260347310A1, “PHENALKYLAMINES AND METHODS OF MAKING AND USING THE SAME” (GILGAMESH PHARMACEUTICALS, INC., priority 2022, published 2026)
# pEC50, pKi: −log10 of the molar value.
# Legend:
# [1] = molecular target: 5-HT2A receptor (Homo sapiens, UniProt P28223); test: PathHunter beta-arrestin recruitment functional agonist assay at 5-HT2A; assay type: cell-based; parameters: expressed in transfected cells; host or cells: PathHunter cells (Eurofins DiscoverX); conditions: for agonist activity at 5-HT2A in arrestin assay (in words): beta-arrestin recruitment; for Emax: read-out: 5-HT2A Arrestin % Act @ Max Dose
# Chain of 5-HT2A receptor (P28223 whole entry): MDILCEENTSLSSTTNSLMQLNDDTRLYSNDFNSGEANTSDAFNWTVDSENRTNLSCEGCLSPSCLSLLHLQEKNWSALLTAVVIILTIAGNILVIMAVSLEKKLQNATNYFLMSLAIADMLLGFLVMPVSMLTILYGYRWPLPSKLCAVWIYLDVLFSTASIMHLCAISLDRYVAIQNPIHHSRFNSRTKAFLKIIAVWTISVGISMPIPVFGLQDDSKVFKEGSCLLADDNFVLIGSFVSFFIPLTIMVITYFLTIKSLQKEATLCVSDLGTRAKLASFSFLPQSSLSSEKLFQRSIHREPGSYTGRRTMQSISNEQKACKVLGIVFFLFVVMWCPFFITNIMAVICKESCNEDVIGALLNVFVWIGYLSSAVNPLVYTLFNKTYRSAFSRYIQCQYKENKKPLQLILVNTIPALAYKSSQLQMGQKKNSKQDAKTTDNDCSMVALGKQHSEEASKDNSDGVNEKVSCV
# Experimental: Disclosed compounds were tested for agonist activity at the 5-HT2A receptor using a beta-arrestin (arrestin) recruitment functional assay, with the results summarized in Table 10.
# Arrestin Functional Assay at 5-HT2A. Recruitment of beta-arrestin was determined using a PathHunter assay at Eurofins DiscoverX (Fremont, CA) according to their standard protocols. PathHunter GPCR beta-arrestin assays take advantage of DiscoverX's proprietary Enzyme Fragment Complementation technology. The GPCR is fused in frame with a small enzyme donor fragment ProLink™ (PK) and co-expressed in cells stably expressing a fusion protein of beta-arrestin and the larger, N-terminal deletion mutant of beta-galactosidase. Activation of the GPCR (5-HT2A receptor in this case) stimulates binding of beta-arrestin to the PK-tagged GPCR and forces complementation of the two enzyme fragments, resulting in the formation of an active beta-galactosidase enzyme. This interaction leads to an increase in enzyme activity that can be measured using chemiluminescent PathHunter Detection Reagents. Briefly, PathHunter cells expressing 5-HT2A receptors were seeded in a volume of 20 μL into 384-well plates and incubated at 37° C. for the appropriate time prior to testing. For agonist activity determination, cells were incubated with 5 μL of 5× sample in assay buffer and incubated at 37° C. for 90-180 min with a vehicle concentration of 1%. Plates were then imaged on a microplate reader and the agonist activity was calculated using the following formula: % Activity=100%×(mean RLU of test sample−mean RLU of vehicle control)/(mean MAX control ligand−mean RLU of vehicle control), where RLU=relative light units.
# [2] = molecular target: T1, 5-HT2C receptor (Homo sapiens, UniProt P28335); test: FLIPR Ca2+ flux functional agonist assay at 5-HT2C; assay type: cell-based; parameters: expressed in transfected cells; conditions: for Emax: agonist activity, FLIPR Ca2+ flux, stably transfected cells, at max dose, read-out: 5-HT2C % Act @ Max Dose
# T1 sequence (P28335 33-458): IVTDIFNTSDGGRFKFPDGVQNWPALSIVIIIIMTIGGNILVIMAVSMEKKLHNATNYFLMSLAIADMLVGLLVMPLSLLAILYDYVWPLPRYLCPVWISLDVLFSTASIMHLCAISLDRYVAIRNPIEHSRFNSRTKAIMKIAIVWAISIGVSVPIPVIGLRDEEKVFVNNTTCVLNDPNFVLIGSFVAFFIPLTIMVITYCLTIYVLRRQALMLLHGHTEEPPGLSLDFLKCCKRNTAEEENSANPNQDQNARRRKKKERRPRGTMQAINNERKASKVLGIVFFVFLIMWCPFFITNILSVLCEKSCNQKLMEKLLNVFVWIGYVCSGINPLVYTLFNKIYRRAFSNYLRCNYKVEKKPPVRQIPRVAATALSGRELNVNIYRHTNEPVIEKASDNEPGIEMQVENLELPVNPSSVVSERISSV
# Experimental: Disclosed compounds were tested for agonist activity at several serotonin receptor subtypes (5-HT2A, […], and 5-HT2C) using Ca^2+ flux functional assays, with the results summarized in Table 9.
# Test Compounds. Compounds were prepared as described above.
# Functional Assays at 5-HT2C. Agonist activity at 5-HT2C was determined using a FLIPR Ca^2+ flux assay at Eurofins DiscoverX (Fremont, CA) according to their standard protocols. Briefly, stably transfected cells expressing the human 5-HT2C receptor were grown and plated in a 384-well plate and incubated at 37° C. and 5% CO2 overnight. Assays were performed in 1× Dye Loading Buffer consisting of 1× Dye, 1× Additive A, and 2.5 mM Probenecid in HBSS/20 mM Hepes. Probenecid was prepared fresh. Cells were loaded with dye prior to testing and incubated at 37° C. for 30-60 minutes. After dye loading, cells were removed from the incubator and 10 μL HBSS/20 mM Hepes was added. 3× vehicle was included in the assay buffer. Cells were incubated for 30 mins at room temperature in the dark to equilibrate plate temperature. Intermediate dilution of sample stocks was performed to generate 4× sample in assay buffer. Compound agonist activity was measured on a FLIPR Tetra (MDS). Calcium mobilization was monitored for 2 minutes and 10 μL 4× sample in HBSS/20 mM Hepes was added to the cells 5 seconds into the assay.
# [3] = molecular target: T2, 5-HT2B receptor (Homo sapiens, UniProt P41595); test: Radioligand binding at 5-HT2B ([3H]LSD)
# T2 construct: expressed in transfected cells; host or cells: HEK293
# T2 sequence (P41595 whole entry): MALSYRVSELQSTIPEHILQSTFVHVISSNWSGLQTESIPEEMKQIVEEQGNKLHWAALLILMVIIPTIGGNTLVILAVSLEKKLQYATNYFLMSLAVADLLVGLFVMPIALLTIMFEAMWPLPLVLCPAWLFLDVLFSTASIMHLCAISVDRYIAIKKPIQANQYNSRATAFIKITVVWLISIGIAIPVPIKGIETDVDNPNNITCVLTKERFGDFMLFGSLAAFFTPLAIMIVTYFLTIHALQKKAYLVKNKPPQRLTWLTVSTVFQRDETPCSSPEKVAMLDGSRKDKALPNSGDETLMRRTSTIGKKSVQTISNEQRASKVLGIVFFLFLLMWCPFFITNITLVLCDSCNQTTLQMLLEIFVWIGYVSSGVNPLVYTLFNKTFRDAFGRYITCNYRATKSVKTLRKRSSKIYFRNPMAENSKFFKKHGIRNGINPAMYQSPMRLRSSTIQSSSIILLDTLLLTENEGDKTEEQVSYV
# Experimental: The binding affinities of disclosed compounds at the ketanserin binding site of the 5-HT2A receptor, the LSD binding site of the 5-HT2B receptor, and the mesulergine binding site of the 5-HT2C receptor were determined in radioligand binding experiments.
# Method. The affinity of the test compounds for 5-HT2A, 5-HT2B, and 5-HT2C receptors was determined in radioligand binding experiments with [^3H]ketanserin, [^3H]LSD, and [^3H]mesulergine, respectively, by WuXi AppTec (Hong Kong) Limited, using methods adapted from the literature and under conditions described in Table 7.
SMILES,pEC50 [1],agonist activity at 5-HT2A in arrestin assay (in words) [1],Emax [1] [%],pEC50 [2],"fold more potent at 5-HT2C ([2]; 1R compared to 1S, Ca2+ flux)",Emax [2] [%],pKi [3],fold lower affinity at 5-HT2B ([3]; 1R compared to 1S)
"CCC(N)Cc1cc(OC)c(CCCCCC(F)(F)F)cc1OC (racemic) [Compound 2a, 1-(2,5-dimethoxy-4-(6,6,6-trifluorohexyl)phenyl)butan-2-amine]",7.48,higher efficacy in this assay than in the 5-HT2A FLIPR assay,56.8,–,–,–,–,–
"CCCCCCc1cc(OC)c(C[C@H](N)CC)cc1OC [Compound 1R, (R)-1-(4-hexyl-2,5-dimethoxyphenyl)butan-2-amine]",8.21,substantially more efficacious compared to 1S,82.5,5.92,~ 3 fold,104,6.95,~ 36 fold
"CCCCCCc1cc(OC)c(C[C@@H](N)CC)cc1OC [Compound 1S, (S)-1-(4-hexyl-2,5-dimethoxyphenyl)butan-2-amine]",8.11,–,58.5,5.50,–,106,8.51,–
